# Target: T1, AHR (UniProt P35869)
# T1 sequence (P35869 1-848): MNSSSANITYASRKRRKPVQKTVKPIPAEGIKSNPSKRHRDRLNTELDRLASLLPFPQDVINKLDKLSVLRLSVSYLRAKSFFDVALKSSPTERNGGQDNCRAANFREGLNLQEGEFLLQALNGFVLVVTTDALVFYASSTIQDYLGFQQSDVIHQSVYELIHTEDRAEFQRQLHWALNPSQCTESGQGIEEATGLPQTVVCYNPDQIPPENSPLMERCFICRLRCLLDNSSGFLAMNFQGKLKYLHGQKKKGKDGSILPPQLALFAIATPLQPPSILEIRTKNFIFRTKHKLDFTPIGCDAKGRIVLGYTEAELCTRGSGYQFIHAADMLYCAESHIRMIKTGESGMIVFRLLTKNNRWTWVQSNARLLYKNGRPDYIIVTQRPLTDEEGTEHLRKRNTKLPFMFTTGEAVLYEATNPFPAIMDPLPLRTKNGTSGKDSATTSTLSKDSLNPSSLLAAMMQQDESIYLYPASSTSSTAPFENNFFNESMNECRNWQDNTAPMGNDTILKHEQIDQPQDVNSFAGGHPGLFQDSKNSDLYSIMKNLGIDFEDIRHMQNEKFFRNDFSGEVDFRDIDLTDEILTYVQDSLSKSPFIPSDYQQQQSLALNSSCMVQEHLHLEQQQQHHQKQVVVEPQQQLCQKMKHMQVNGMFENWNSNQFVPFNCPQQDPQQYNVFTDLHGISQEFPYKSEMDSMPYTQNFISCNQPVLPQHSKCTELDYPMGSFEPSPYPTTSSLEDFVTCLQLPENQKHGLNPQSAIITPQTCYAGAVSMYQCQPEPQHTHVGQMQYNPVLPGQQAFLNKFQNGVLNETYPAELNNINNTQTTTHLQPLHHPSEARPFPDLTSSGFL
# Experiment: DRE-Luciferase Reporter Assay (Example 1A)
# Type: cell-based
# Parameters: IC50
# Settings: concentration which inhibits half of the luciferase activity induced by an AHR activating ligand; murine (Hepa1-6, Hepa-1c1c7) or human (HepG2) DRE-luciferase reporter cells, cell line used not stated
# Method: AHR binds to Dioxin Responsive Elements (DRE) upstream of genes that it activates. One measure of AHR activity is activation of a reporter gene, such as luciferase, downstream of one or multiple DRE elements. Luciferase activity will reflect activation and inhibition of AHR in the cells expressing his reporter.
# Murine Hepa1-6 or Hepa-1c1c7 or other murine cell line with a DRE-luciferase reporter either stably or transiently transfected were plated in media in plates (96-well, 384-well or other plates) and incubated overnight at 37° C. in a CO2 incubator. Likewise, human HepG2 or other human cell line with a DRE-luciferase reporter either stably or transiently transfected were plated in media in plates (96-well, 384-well or other plates) and incubated overnight at 37° C. in a CO2 incubator.
# The next day, an AHR activating ligand, such as TCDD, kynurenine, ITE (2-(1H-indole-3-ylcarbonyl)-4-thiazolecarboxylic methyl ester), VAF347, BNF (beta-naphthoflavone), FICZ (6-formylindolo(3,2-b) carbazole or other AHR ligands, was added with or without AHR antagonist.
# Cells were incubated for 4, 15 or 24 hours or another time point and then lysed for determination of luciferase activity as a read-out of the AHR activation or inhibition. Luciferase was measured with a commercial kit such as the Promega Luciferase kit or any kit or reagents that provide the luciferin substrate for measuring luciferase activity. The level of luciferase with only activating ligand added was the maximum signal while the luciferase with no ligand was the minimum signal. IC50 values were determined as the concentration which inhibits half of the luciferase activity.
row,SMILES,IC50
1,Cc1cc(C(=O)N2CCCc3ccccc32)ccc1NC(=O)c1ccnn1C [I-1],> 1500 nM
2,Cc1cc(C(=O)N2CCc3ccccc32)ccc1NC(=O)c1ccnn1C [I-2],> 1500 nM
3,Cc1cc(C(=O)Nc2ncccc2C)ccc1NC(=O)c1ccnn1C [I-3],> 1500 nM
4,Cc1cc(C(=O)n2ccc3ccccc32)ccc1NC(=O)c1ccnn1C [I-4],> 1500 nM
5,"Cc1ccccc1/C=C/c1ccc(NC(=O)c2ccnn2C)c(C)c1 [I-5, (E)-1-methyl-N-(2-methyl-4-(2-methylstyryl)phenyl)-1H-pyrazole-5-carboxamide]",< 500 nM
6,"Cc1ccccc1CCc1ccc(NC(=O)c2ccnn2C)c(C)c1 [I-6, 1-methyl-N-(2-methyl-4-(2-methylphenethyl)phenyl)-1H-pyrazole-5-carboxamide]",> 1500 nM
7,"Cc1ccccc1/C=C\c1ccc(NC(=O)c2ccnn2C)c(C)c1 [I-7, (Z)-1-methyl-N-(2-methyl-4-(2-methylstyryl)phenyl)-1H-pyrazole-5-carboxamide]",> 1500 nM
8,"Cc1ccccc1NC(=O)c1ccc(NC(=O)c2ccnn2C)c(C)c1 [I-8, 1-methyl-N-(2-methyl-4-(o-tolylcarbamoyl)phenyl)-1H-pyrazole-5-carboxamide]",> 1500 nM
9,"Cc1cc(NC(=O)c2ccccc2C)ccc1NC(=O)c1ccnn1C [I-9, 1-methyl-N-(2-methyl-4-(2-methylbenzamido)phenyl)-1H-pyrazole-5-carboxamide]",> 1500 nM
10,"Cc1ccccc1CNc1ccc(NC(=O)c2ccnn2C)c(C)c1 [I-10, 1-methyl-N-(2-methyl-4-((2-methylbenzyl)amino)phenyl)-1H-pyrazole-5-carboxamide]",> 1500 nM
11,"Cc1ccccc1NCc1ccc(NC(=O)c2ccnn2C)c(C)c1 [I-11, 1-methyl-N-(2-methyl-4-((o-tolylamino)methyl)phenyl)-1H-pyrazole-5-carboxamide]",> 1500 nM
12,"Cc1ccccc1NC(=O)c1ccc(NC(=O)c2ccnn2C)c(C)n1 [I-12, 6-Methyl-5-(1-methyl-1H-pyrazole-5-carboxamido)-N-(o-tolyl)picolinamide]",500 to 1000 nM
13,Cc1cc(C(=N)Nc2ncccc2C)ccc1NC(=O)c1ccnn1C [I-13],> 1500 nM
14,Cc1ccccc1/N=N/c1ccc(NC(=O)c2ccccn2)c(C)c1 [I-14],> 1500 nM
15,"Cc1ccccc1NCc1ccc(NC(=O)c2ccnn2C)c(C)n1 [I-15, 2-Methyl-N-[2-methyl-6-[(2-methylanilino)methyl]-3-pyridyl]pyrazole-3-carboxamide]",1000 to 1500 nM
16,Cc1cc(N)ccc1NC(=O)c1ccnn1C [I-16],> 1500 nM

row,SMILES,IC50
1,"Cc1cc(COc2ccccc2C)ccc1NC(=O)c1ccnn1C [I-18, 2-Methyl-N-[2-methyl-4-[(2-methylphenoxy)methyl]phenyl]pyrazole-3-carboxamide]",< 500 nM
2,Cc1cc(/C=C/c2cccnc2C)ccc1NC(=O)c1ccnn1C [I-19],> 1500 nM
3,"Cc1cc(/C=C/c2ccccc2)ccc1NC(=O)c1ccnn1C [I-20, 2-Methyl-N-[2-methyl-4-[(E)-styryl]phenyl]pyrazole-3-carboxamide]",< 500 nM
4,Cc1cc(C2OC2c2ccccc2)ccc1NC(=O)c1ccnn1C (centres unmarked) [I-21],> 1500 nM
5,"Cn1nccc1C(=O)Nc1ccc2nc(-c3ccccc3)ccc2c1 [I-22, 2-Methyl-N-(2-phenyl-6-quinolyl)pyrazole-3-carboxamide]",< 500 nM
6,"Cc1cc(C2OC2c2ccccc2C)ccc1NC(=O)c1ccnn1C (centres unmarked) [I-23, 2-Methyl-N-[2-methyl-4-[3-(o-tolyl)oxiran-2-yl]phenyl]pyrazole-3-carboxamide]",< 500 nM
7,"Cc1ccccc1/N=N/c1ccc(NC(=O)c2ccnn2C)cc1C [I-24, 2-Methyl-N-[3-methyl-4-[(E)-o-tolylazo]phenyl]pyrazole-3-carboxamide]",< 500 nM
8,"Cc1ccccc1/N=N/c1ccc(C(=O)Nc2ccnn2C)c(C)c1 [I-25, 2-Methyl-N-(2-methylpyrazol-3-yl)-4-[(E)-o-tolylazo]benzamide]",< 500 nM
9,Cc1cc(/N=N/c2ncccc2C)ccc1NC(=O)c1ccnn1C [I-26],> 1500 nM
10,"Cc1ccccc1/C=C/c1ccc(NC(=O)c2ccnn2C)cc1 [I-27, 2-Methyl-N-[4-[(E)-2-(o-tolyl)vinyl]phenyl]pyrazole-3-carboxamide]",500 to 1000 nM
11,"Cc1ccccc1C#Cc1ccc(NC(=O)c2ccnn2C)c(C)c1 [I-29, 2-Methyl-N-[2-methyl-4-[2-(o-tolyl)ethynyl]phenyl]pyrazole-3-carboxamide]",< 500 nM
12,Cc1ccccc1-c1ccc2cc(NC(=O)c3ccnn3C)ccc2n1 [I-30],> 1500 nM
13,Cc1cc(-c2cc3ccccc3cn2)ccc1NC(=O)c1ccnn1C [I-31],> 1500 nM
14,Cc1cc(-c2ccc3ccccc3c2)ccc1NC(=O)c1ccnn1C [I-32],> 1500 nM
15,Cc1ccccc1/C=C/c1ccc(NC(=O)c2ccn[nH]2)c(C)c1 [I-36],> 1500 nM
16,Cc1ccccc1/C=C/c1ccc(NC(=O)c2cncn2C)c(C)c1 [I-37],> 1500 nM
